The source of these data is publication PMC2862727 (Molecular immunology, 2010).

The test system of data set [1] is IL-1β production in THP-1 cells. Description: IL-1β immunoblot of THP-1 cell lysates. Particulars: for effect of inhibitor or antagonist alone on IL-1β generation: absence of receptor agonist, data not shown.
Data set [2] deals with β-AR mediating cAMP production in THP-1 cells (Homo sapiens, UniProt P08588). Description: Iso-induced cAMP production in THP-1 cells, Schild regression analysis. It counts as cell-based. Particulars: inhibition of Iso mediated cAMP production in THP-1 cells, n = 4.
Sequence of β-AR mediating cAMP production in THP-1 cells (P08588 whole entry): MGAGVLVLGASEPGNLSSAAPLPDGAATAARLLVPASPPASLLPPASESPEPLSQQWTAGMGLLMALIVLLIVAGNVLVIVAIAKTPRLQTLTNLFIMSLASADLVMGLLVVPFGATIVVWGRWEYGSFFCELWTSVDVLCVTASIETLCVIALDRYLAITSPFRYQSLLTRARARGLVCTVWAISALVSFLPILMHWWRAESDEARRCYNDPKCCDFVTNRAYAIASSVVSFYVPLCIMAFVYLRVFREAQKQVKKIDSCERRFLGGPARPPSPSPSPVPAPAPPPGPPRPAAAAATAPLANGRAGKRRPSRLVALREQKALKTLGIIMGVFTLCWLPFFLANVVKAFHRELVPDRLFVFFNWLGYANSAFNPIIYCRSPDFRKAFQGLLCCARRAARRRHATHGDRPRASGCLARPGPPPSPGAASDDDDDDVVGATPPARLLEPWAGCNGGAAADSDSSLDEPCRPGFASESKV
Data set [3] concerns specific ^125I-CYP binding sites on THP-1 membranes. Particulars: one-site binding model, ref Talmadge, et al., 1993; cited from earlier work.
Data set [4] relates to β-AR binding sites on THP-1 cell membranes. Description: Saturation radioligand binding of 125I-CYP on crude THP-1 cell membranes. As to conditions: THP-1 membranes, n = 6. Further details: species or system human.
Data set [5] deals with secreted IL-1β from THP-1 cells. Description: ELISA of IL-1β secreted into media of THP-1 cells. Format: cell-based, human. Particulars: for secreted IL-1β in media: 2 h.
The test system of data set [6] is inflammatory mediators secreted by THP-1 cells. Description: Cytokine antibody array of conditioned media from THP-1 cells. Format: cell-based, human. As to conditions: 2 h, n = 3.
Data set [7] has as its system IL-1β production in primary human monocytes. Description: IL-1β immunoblot of primary human monocyte lysates. Format: cell-based. As to conditions: individual treatment (30 ng/mL LPS or 0.1 μM Iso alone), n = 3.
Where [8] appears, read: individual treatment (30 ng/mL LPS or 0.1 μM Iso alone), n = 6, control 1.6 ± 0.5 pg/mL.
Where [9] appears, read: 30 ng/mL LPS and 0.1 μM Iso simultaneously.

Entries after “also recorded” stand apart in the source; their conditions may differ. Some results are limits rather than exact numbers.

As to `Cc1ccc(OCC(O)C(C)NC(C)C)c2c1CCC2` (racemic) [ICI 118,551, erythro-dl-1-(7-methylindan-4-yloxy)-3-isopropylaminobutan-2-ol], in data set [1] (THP-1 cells), the “effect of inhibitor or antagonist alone on IL-1β generation” value (shortened to “effect of inhibitor or antagonist alone”) is reported as “no qualitative changes”. The molecule also registered a Schild regression slope in data set [2] of 1.0 ± 0.1. In data set [3], the Ki was 46 nM.
Turning to `CC(C)(C)NCC(O)COc1cccc2[nH]c(C#N)c(I)c12` (single isomer, unassigned; (-)) [^125I-CYP, (–)3-[^125I]iodocyanopindolol], in data set [4] (read-out: equilibrium dissociation constant (Kd) of 125I-CYP, saturation binding), the Kd stood at 0.0301 ± 0.0051 nM.
`CC(C)(C)NCC(O)COc1cccc2[nH]c(C#N)c([125I])c12` (single isomer, unassigned; (-)) [^125I-CYP, (–)3-[^125I]iodocyanopindolol]: the “number of binding sites (Bmax)” value in data set [4] (labeled by 125I-CYP) is recorded as 341 ± 77 fmol/mg protein.
As for `Cn1cc(C(F)(F)F)nc1-c1ccc(OCC(O)CNCCOc2ccc(O)c(C(N)=O)c2)cc1` (stereo not shown) [CGP 20712A, 1-(2-((3-carbamoyl-4-hydroxy)phenoxy)ethylamino)-3-(4-(1-methyl-4-trifluoromethyl-2-imidazoylyl)phenoxy)-2-propanol methanesulfonate], in data set [1] (THP-1 cells), the “effect of inhibitor or antagonist alone” value was “no qualitative changes”.
On to `Cl.Cl.O=S(=O)(NCCNCC=Cc1ccc(Br)cc1)c1cccc2cnccc12` [H-89, N-[2-(p-bromocinnamylamino)ethyl]-5-isoquinolinesulfonamide dihydrochloride], for which the “effect of inhibitor or antagonist alone” value in data set [1] (THP-1 cells) was “did not alter responses”. Moreover, the “IL-1β produced, fold over LPS” value in data set [1] (THP-1 lysates, 100 nM H-89 pre-incubation then 30 ng/mL LPS plus 0.1 μM Iso (Fig 7), n = 6) turned out to be 1.4±0.1 fold over LPS.
Take `CC(C)NCC(O)c1ccc(O)c(O)c1` (stereo not shown) [Iso, isoproterenol]: the “synergistic modulation of LPS mediated production of IL-1β” value in data set [1] (THP-1 cells, LPS plus Iso versus LPS alone) is above 4 fold. Also, in data set [5], the “difference in IL-1β released into media between LPS alone and LPS plus Iso” value is above 4 fold. Also, in data set [5] (0.1 μM Iso plus 30 ng/mL LPS, n = 6), the “secreted IL-1β in media” value worked out at 76.3 ± 24.7 pg/mL. Also, the “secreted IL-1β in media” value in data set [5] (setting [8]) amounted to 4.8 ± 1.4 pg/mL. In addition, in data set [6] (setting [9]), the “LPS mediated TNF-α expression versus LPS alone” value is recorded as “qualitative loss; also recorded: decreases” and the “soluble IL-1β versus LPS stimulation alone” value is listed as “qualitative increase”. Moreover, in data set [6] (0.1 μM Iso only), the “expression pattern of inflammatory mediators versus basal” value is “no differences in the expression pattern”.
For lipopolysaccharide [LPS], the “IL-1β produced, fold over basal” value in data set [1] (THP-1 lysates, individual treatment (30 ng/mL LPS or 0.1 μM Iso alone), 2 hr, n = 5) turned out to be 12.1 ± 3.9 fold; in data set [7] it was 3.4 ± 1.8 fold. Further, the “secreted IL-1β in media” value in data set [5] (setting [8]) turned out to be 16.9 ± 2.6 pg/mL. Moreover, in data set [6] (30 ng/mL LPS only), the “expression of secreted IL-1β and TNF-α versus control” value was “qualitative increase”.
